Data taken from article PMC7747594, “Protease-activated receptor-2 ligands reveal orthosteric and allosteric mechanisms of receptor inhibition” (Communications Biology, 2020).
Several values for one entry are separate records, joined by “and”; a condition that tells them apart may be missing. Equal values may be shown once. Ends that are not written are not given here. Peptide text beside a SMILES is read from it.

Experiments:
[1] = biological target: T1, beta-tryptase (uniprot P20231) (Homo sapiens, UniProt P20231); test: Tryptase enzyme activity assay; format: biochemical; details: 10 µM, n=1
T1 construct: made in house; host or cells: Pichia pastoris
Experimental: Tryptase Enzyme Activity Assay. The tryptase assay was carried out using beta-tryptase (uniprot P20231) produced in Pichia pastoris and using Tos-Gly-Pro-Lys-pNA as substrate (25 mM stock in ethanol) in 100 mM Tris pH 8.0, 100 mM NaCl, 10% glycerol, 0.5 mg mL-1 BSA, 0.1% DDM. Substrate (250 µM) was pre-incubated with test compound (10 µM) in assay buffer (200 ul) in clear bottom 96 well Greiner plates at room temperature. The re action was started by the addition of tryptase to a final concentration of 4.7 nM. Co nversion was recorded in a plate reader by monitoring the increase of absorption at λ = 405 nm over time. Activity was determined by linear fit of initial rate.

[2] = biological target: human PAR2 on Flp-In CHO-hPAR2 cells (human) (UniProt P55085); test: time-resolved fluorescence competition binding on cells (Eu-tagged ligand, DELFIA); CHO-hPAR2 cells in 384-well plates, blocked with 2% BSA; Eu-tagged-2f-LIGRLO(dtpa)-NH2 300 nM together with competitor for 15 min; washed; DELFIA Enhancement Solution
hPAR2 [3] = biological target: T2, hPAR2 (Homo sapiens, UniProt P55085); test: β-arrestin-2 recruitment, agonist mode, U2OS-hPAR2 cells; format: cell-based
T2 sequence (P55085 26-397): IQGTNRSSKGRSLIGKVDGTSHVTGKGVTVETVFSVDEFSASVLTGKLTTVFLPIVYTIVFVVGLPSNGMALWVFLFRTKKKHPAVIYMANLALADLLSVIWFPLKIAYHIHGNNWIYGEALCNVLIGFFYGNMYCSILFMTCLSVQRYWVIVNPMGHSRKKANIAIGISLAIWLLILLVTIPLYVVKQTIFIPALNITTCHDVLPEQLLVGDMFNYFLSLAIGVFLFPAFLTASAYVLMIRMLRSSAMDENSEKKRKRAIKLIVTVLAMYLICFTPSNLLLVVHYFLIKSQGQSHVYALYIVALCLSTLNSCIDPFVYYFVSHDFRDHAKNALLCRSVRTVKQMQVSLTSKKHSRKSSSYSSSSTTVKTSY

hPAR2 [4] = biological target: T2, hPAR2; test: Radiolabelled competition binding assay against [^3H]-GB110 on HEKexpi293F membranes; set-up: expressed in transfected cells
Experimental: The reaction was then filtered through 0.5% PEI-coated filter plates using a BiomekFX. The filter plate was then dried for 1 h at 50 °C. Scintillation fluid was added to each well, before reading the plate in a Microbeta reader.
(§1) Binding data were analysed using the One site – Fit Ki model in GraphPad Prism 8 (GraphPad Software) to determine binding affinity. Pharmacology in vitro potency data was analysed with a 4-parameter logistic fit using the equation y = Bottom + (Top − Bottom)/[…] where y is the response, x is the 10-logarithm of the drug concentration, Bottom is no response and Top is full response in GraphPad Prism 8 or Genedata Screener (Genedata). pEC50 and pIC50 data are presented as mean ± standard error of the mean (s.e.m.) derived from the number of independent experiments stated. Schild slope analysis was calculated using Graphpad Prism 8 Gaddum/Schild EC50 global fitting (shared model parameters between all data sets) competitive model. The most rigorous method for quantifying agonist-antagonist interactions is to globally fit the Gaddum/Shild model to all agonist dose–response curves. Schild slope quantifies the shifts in agonist response in the presence of antagonist, a Schild slope of 1 indicates the antagonist is competitive and extra-sum-of-squares F-test (p < 0.05) was used to compare the calculated Schild slope against a hypothetical Schild slope of 1. […] The relative activity was calculated using (EmaxEC50’)/(Emax’EC50) with the Hill slope help constant at 1. EC50’ and Emax’ denote the EC50 and Emax in the absence of allosteric modulator, while EC50 and Emax denote those measured in the presence of allosteric modulator. When the Hill slope = 1, the relative activity plot approaches an asymptote corresponding to the estimate of the γ value.

hPAR2 [5] = biological target: T2, hPAR2; test: pERK1/2 assay, agonist mode, U2OS-hPAR2 cells; format: cell-based
hPAR2 [6] = biological target: T2, hPAR2; test: Ca^2+ flux assay, agonist mode, 1321N1-hPAR2 cells; format: cell-based; details: for Ca2+ response (Fig 2c), individual replicate values: hPAR2
Experimental: Cells were loaded with Fluo-8 NW calcium dye (AAT Bioquest) for 30 min at 37 °C before compounds in Hank’s balanced salt solution (HBSS, ThermoFisher Scientific) with 20 mM HEPES (ThermoFisher Scientific), 0.1% bovine serum albumin (BSA, Sigma) and 0.5% DMSO were added and simultaneously evaluated for changes in intracellular [Ca^2+] using FLIPR TETRA (Molecular Devices) to detect agonism. For each concentration, the difference between the maximum peak Ca^2+ response and baseline response is reported. […] Antagonism experiments were also carried out on 1321N1-PAR2[WT], 1321N1-PAR2[F154A], and 1321N1-PAR2[G157C] as described. Experiments with trypsin in 1321N1-hPAR2 cells were performed in the presence of 1 µM Vorapaxar (Chemtronica) to remove any interference of PAR1 activity. […] Antagonism experiments for CHO-hPAR2 and HT-29 cells were performed in 96-well plates at 30,000 cells/well. Cells were loaded with Fluo-3 AM calcium dye (Sigma-Aldrich) for 60 min at 37 °C in HBSS with 1% FBS, 0.2% pluronic acid, 20 mM HEPES and 2.5 mM probenecid prior to the addition of antagonist. The antagonist was pre-incubated for 60 min at 37 °C followed by the addition of bovine trypsin (30 nM) at EC80. Intracellular [Ca^2+] flux was measured using FLIPR TETRA (Molecular Devices) and the difference between the maximum peak Ca^2+ response and baseline response is reported.
as §1, with “The most rigorous method for quantifying agonist-antagonist interactions is to globally fit the Gaddum/Shild model to all agonist dose–response curves.” left out

hPAR2 [7] = biological target: T2, hPAR2; test: IP1 assay, agonist mode, 1321N1-hPAR2 cells; format: cell-based
[8] = biological target: human protease-activated receptor-2 (PAR2) in membranes of HEKexpi293F cells (human, UniProt P55085 26-397); test: radioligand binding; competition against [3H]-GB110 (25 nM) on membranes (30 µg protein per well) of HEKexpi293F cells expressing human PAR2; 2 h at room temperature; filtration; One site - Fit Ki model; details: one partner purified

T1 sequence (P20231 31-275): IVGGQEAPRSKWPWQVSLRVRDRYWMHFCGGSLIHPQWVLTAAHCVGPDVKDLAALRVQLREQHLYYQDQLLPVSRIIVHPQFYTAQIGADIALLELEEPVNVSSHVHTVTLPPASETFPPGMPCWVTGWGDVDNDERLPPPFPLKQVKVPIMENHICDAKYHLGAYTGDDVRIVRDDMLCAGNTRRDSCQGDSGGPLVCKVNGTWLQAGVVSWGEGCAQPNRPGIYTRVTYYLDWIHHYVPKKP

N=C(N)Nc1ccc(C(=O)Oc2ccc([N+](=O)[O-])cc2)cc1 [4-nitrophenyl-4-guanidinobenzoate, reference compound]
inhibition of tryptase activity [1]: completely

2f-LIGRLO-NH2 (peptide)
pKA (equilibrium dissociation constant of the orthosteric ligand) [2]: 6.1 pKA

CC[C@H](C)[C@H](NC(=O)[C@H](CC(C)C)NC(=O)[C@@H](N)CO)C(=O)NCC(=O)N[C@@H](CCCCN)C(=O)N[C@H](C(N)=O)C(C)C [SLIGKV-NH2, reference compound] (H-SLIGKV-NH2)
EC50 (hPAR2 [3]): 12.6 µM
agonist response (Fig 2f), individual replicate values (hPAR2 [3]; [compound],M -4.04576): 97.3808 and 92.2809 and 86.7862 and 73.31 and 95.9148 and 84.3134
agonist response (Fig 2f), individual replicate values (hPAR2 [3]; [compound],M -4.52288): 92.9579 and 90.0884 and 64.3276 and 56.5062 and 77.8703 and 74.4284
agonist response (Fig 2f), individual replicate values (hPAR2 [3]; [compound],M -5): 55.0604 and 54.5545 and 55.8646 and 38.6159 and 58.5041 and 56.712
agonist response (Fig 2f), individual replicate values (hPAR2 [3]; [compound],M -5.47712): 26.8191 and 21.9568 and 32.045 and 20.5609 and 38.941 and 38.2123
agonist response (Fig 2f), individual replicate values (hPAR2 [3]; [compound],M -5.95424): 3.59 and 16.887 and 24.5009 and 9.51 and 14.8748 and 18.3177
agonist response (Fig 2f), individual replicate values (hPAR2 [3]; [compound],M -6.43136): -3.351 and 12.8282 and 7.2581 and 5.779 and 4.6 and 10.8974
agonist response (Fig 2f), individual replicate values (hPAR2 [3]; [compound],M -6.90849): 4.102 and 7.728 and 1.445 and -0.0221 and 3.388 and 8.399
agonist response (Fig 2f), individual replicate values (hPAR2 [3]; [compound],M -7.38561): 1.29 and 11.1269 and 3.313 and 3.3558 and 1.549 and 0.5881
agonist response (Fig 2f), individual replicate values (hPAR2 [3]; [compound],M -7.86273): -1.101 and 4.782 and 4.705 and 0.01875 and -2.103 and 4.2334
agonist response (Fig 2f), individual replicate values (hPAR2 [3]; [compound],M -8.33985): -5.551 and 2.218 and -0.6869 and -0.9848 and 0.2659 and 2.337
Ki (hPAR2 [4]): 0.468 µM
remaining binding at […] (hPAR2 [4]; 2 h, read-out: specific binding of [^3H]-GB110, Fig 2b source data): 100% and 94.6%
EC50 (hPAR2 [5]): 10 µM
agonist response (Fig 2e), individual replicate values (hPAR2 [5]; [compound],M -4.04576): 99.6308 and 91.4672 and 59.9255 and 93.3534 and 82.1422 and 106.727 and 95.3302 and 107.361
agonist response (Fig 2e), individual replicate values (hPAR2 [5]; [compound],M -4.52288): 97.6379 and 75.0545 and 42.279 and 78.3436 and 72.4641 and 77.8082 and 83.5277 and 91.4836
agonist response (Fig 2e), individual replicate values (hPAR2 [5]; [compound],M -5): 31.7126 and 38.7964 and 29.9003 and 52.5593 and 35.7079 and 56.5471 and 40.6895 and 78.4826
agonist response (Fig 2e), individual replicate values (hPAR2 [5]; [compound],M -5.47712): -6.206 and 24.6437 and 9.489 and 50.4555 and 3.733 and 21.3761 and 7.93 and 32.2657
agonist response (Fig 2e), individual replicate values (hPAR2 [5]; [compound],M -5.95424): -12.6824 and 18.9444 and 7.502 and 22.8061 and -1.381 and 9.052 and -3.256 and 12.5644
agonist response (Fig 2e), individual replicate values (hPAR2 [5]; [compound],M -6.43136): -23.75 and 16.3682 and -5.093 and 16.2671 and -4.436 and 12.7209 and -3.872 and 14.813
agonist response (Fig 2e), individual replicate values (hPAR2 [5]; [compound],M -6.90849): 15.5205 and 19.768 and 3.339 and 15.6565 and 2.966 and 12.1455 and -0.4138 and 11.0577
agonist response (Fig 2e), individual replicate values (hPAR2 [5]; [compound],M -7.38561): -7.931 and 10.0627 and -5.815 and 6.181 and -11.0844 and 9.039 and -0.4366 and 14.6989
agonist response (Fig 2e), individual replicate values (hPAR2 [5]; [compound],M -7.86273): -16.2411 and 11.2751 and -1.735 and 6.359 and -8.732 and 10.0488 and 1.766 and 13.489
agonist response (Fig 2e), individual replicate values (hPAR2 [5]; [compound],M -8.33985): -5.583 and 13.904 and -4.7322 and 9.728 and -8.195 and 13.5647 and -0.3681 and 7.371
EC50 (hPAR2 [6]): 1.26 µM
Ca2+ response (Fig 2c), individual replicate values (hPAR2 [6]; [compound],M -3.69897): 103.767 and 118.778 and 97.8658 and 87.8393
Ca2+ response (Fig 2c), individual replicate values (hPAR2 [6]; [compound],M -4.17609): 56.3274 and 105.715 and 98.496 and 100.501
Ca2+ response (Fig 2c), individual replicate values (hPAR2 [6]; [compound],M -4.65321): 93.626 and 84.0006 and 100.043 and 97.9804
Ca2+ response (Fig 2c), individual replicate values (hPAR2 [6]; [compound],M -5.13033): 68.0728 and 71.1667 and 73.1719 and 72.2553
Ca2+ response (Fig 2c), individual replicate values (hPAR2 [6]; [compound],M -5.60746): 41.6601 and 53.119 and 63.0309 and 60.338
Ca2+ response (Fig 2c), individual replicate values (hPAR2 [6]; [compound],M -6.08458): 28.1959 and 44.9832 and 36.0453 and 35.9307
Ca2+ response (Fig 2c), individual replicate values (hPAR2 [6]; [compound],M -6.5617): 11.2941 and 18.1695 and 18.1121 and 22.4665
Ca2+ response (Fig 2c), individual replicate values (hPAR2 [6]; [compound],M -7.03882): 4.705 and 12.8411 and -0.8522 and 3.559
Ca2+ response (Fig 2c), individual replicate values (hPAR2 [6]; [compound],M -7.51594): -1.139 and 5.679 and 1.6687 and -1.54
Ca2+ response (Fig 2c), individual replicate values (hPAR2 [6]; [compound],M -7.99306): -2.17 and 3.044 and 0.4082 and -4.863
EC50 (hPAR2 [7]): 25.1 µM

B1: SLIGKV-NH2 (peptide)
peptide: SLIGKV-NH2
notes: also called human tethered ligand peptide; source: synthetic peptide, custom synthesised by ThermoFisher Scientific
pKi [8]: 6.33 pKi
